Measured values: the kinase profiling compilation of Christmann-Franck et al. (2016)

How the values were obtained:
Test in all cases: KINOMEscan competition binding
Settings in all cases: compound 10.0 µM
RPS6KA2 KD2 (human) = RPS6KA2 KD2 (human) (UniProt Q15349)
PIP4K2C (human) = PIP4K2C (human) (UniProt Q8TBX8)
RIOK1 (human) = RIOK1 (human) (UniProt Q9BRS2)
RIPK4 (human) = RIPK4 (human) (UniProt P57078)
CDKL5 (human) = CDKL5 (human) (UniProt O76039)
PRKG2 (human) = PRKG2 (human) (UniProt Q13237)
MATK (human) = MATK (human) (UniProt P42679)
NEK7 (human) = NEK7 (human) (UniProt Q8TDX7)
AKT1 (human) = AKT1 (human) (UniProt P31749)
MARK1 (human) = MARK1 (human) (UniProt Q9P0L2)
MAP3K10 (human) = MAP3K10 (human) (UniProt Q02779)
MAPK10 (human) = MAPK10 (human) (UniProt P53779)
MAPKAPK2 (human) = MAPKAPK2 (human) (UniProt P49137)
FLT3 (human) = FLT3 (human) (UniProt P36888)
PTK6 (human) = PTK6 (human) (UniProt Q13882)
FGFR2 (human) = FGFR2 (human) (UniProt P21802)
DAPK3 (human) = DAPK3 (human) (UniProt O43293)
PKN3 (M.tuberculosis) = PKN3 (M.tuberculosis) (UniProt Q6P5Z2)
STK32C (human) = STK32C (human) (UniProt Q86UX6)
[1] = test system: ABL1 (human), P00519 [Y253F]
NEK1 (human) = NEK1 (human) (UniProt Q96PY6)
GSK3B (human) = GSK3B (human) (UniProt P49841)
CSF1R (human) = CSF1R (human) (UniProt P07333)
PRKX (human) = PRKX (human) (UniProt P51817)
PIK3CB (human) = PIK3CB (human) (UniProt P42338)
EPHA3 (human) = EPHA3 (human) (UniProt P29320)
MYLK2 (human) = MYLK2 (human) (UniProt Q9H1R3)
STK4 (human) = STK4 (human) (UniProt Q13043)
[2] = target: TYK2 JH1 catalytic (human) (UniProt P29597)
RPS6KA6 KD1 (human) = RPS6KA6 KD1 (human) (UniProt Q9UK32)
SIK1 (human) = SIK1 (human) (UniProt P57059)
RIPK1 (human) = RIPK1 (human) (UniProt Q13546)
STK25 (human) = STK25 (human) (UniProt O00506)
CRK2 (P.falciparum) = CRK2 (P.falciparum) (UniProt P61075)
RPS6KA2 KD1 (human) = RPS6KA2 KD1 (human) (UniProt Q15349)
[3] = test system: EGFR (human), P00533 [747-751 del / S ins]
MELK (human) = MELK (human) (UniProt Q14680)
SRPK2 (human) = SRPK2 (human) (UniProt P78362)
GSK3A (human) = GSK3A (human) (UniProt P49840)
VRK2 (human) = VRK2 (human) (UniProt Q86Y07)

Chain of RIOK1 (human) (Q9BRS2 whole entry, looked up): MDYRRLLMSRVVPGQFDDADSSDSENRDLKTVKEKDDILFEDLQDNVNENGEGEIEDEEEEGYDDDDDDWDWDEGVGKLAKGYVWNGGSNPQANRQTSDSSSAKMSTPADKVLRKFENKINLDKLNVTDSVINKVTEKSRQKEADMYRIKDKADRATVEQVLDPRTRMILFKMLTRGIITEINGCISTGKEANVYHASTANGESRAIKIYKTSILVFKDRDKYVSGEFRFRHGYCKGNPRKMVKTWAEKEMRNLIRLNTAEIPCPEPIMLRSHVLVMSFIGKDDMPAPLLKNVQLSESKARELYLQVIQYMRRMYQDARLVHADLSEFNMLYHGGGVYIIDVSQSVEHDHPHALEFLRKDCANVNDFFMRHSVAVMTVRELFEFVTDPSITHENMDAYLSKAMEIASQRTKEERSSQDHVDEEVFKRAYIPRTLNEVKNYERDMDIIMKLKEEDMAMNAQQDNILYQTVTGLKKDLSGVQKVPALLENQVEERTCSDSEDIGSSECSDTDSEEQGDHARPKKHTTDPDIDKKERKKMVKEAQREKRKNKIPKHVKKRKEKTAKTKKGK
Chain of CDKL5 (human) (O76039 whole entry, looked up): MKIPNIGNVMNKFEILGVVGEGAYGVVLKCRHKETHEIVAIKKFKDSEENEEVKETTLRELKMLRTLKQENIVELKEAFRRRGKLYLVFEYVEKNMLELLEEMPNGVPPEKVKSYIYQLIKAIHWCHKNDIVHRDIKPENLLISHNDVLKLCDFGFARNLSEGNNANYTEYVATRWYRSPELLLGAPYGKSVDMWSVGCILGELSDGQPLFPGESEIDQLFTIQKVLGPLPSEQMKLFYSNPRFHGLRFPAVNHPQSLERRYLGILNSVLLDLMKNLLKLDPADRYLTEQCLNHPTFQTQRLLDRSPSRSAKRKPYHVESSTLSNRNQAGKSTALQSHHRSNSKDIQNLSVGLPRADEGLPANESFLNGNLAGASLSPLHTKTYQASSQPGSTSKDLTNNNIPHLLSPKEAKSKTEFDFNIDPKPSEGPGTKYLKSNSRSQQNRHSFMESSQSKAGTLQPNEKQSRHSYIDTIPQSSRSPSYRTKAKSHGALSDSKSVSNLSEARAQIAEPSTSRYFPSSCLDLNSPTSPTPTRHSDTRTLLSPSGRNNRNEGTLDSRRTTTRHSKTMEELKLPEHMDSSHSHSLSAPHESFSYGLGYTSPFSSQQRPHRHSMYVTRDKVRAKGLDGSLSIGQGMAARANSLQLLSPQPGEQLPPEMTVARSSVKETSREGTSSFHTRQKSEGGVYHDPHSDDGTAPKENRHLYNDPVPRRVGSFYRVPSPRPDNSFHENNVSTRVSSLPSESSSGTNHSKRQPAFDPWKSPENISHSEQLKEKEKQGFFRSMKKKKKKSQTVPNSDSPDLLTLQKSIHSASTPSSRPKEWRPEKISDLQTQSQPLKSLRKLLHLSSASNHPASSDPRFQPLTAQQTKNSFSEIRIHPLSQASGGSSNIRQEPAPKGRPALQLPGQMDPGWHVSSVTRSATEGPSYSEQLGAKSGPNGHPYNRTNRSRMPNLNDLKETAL
Chain of CSF1R (human) (P07333 whole entry, looked up): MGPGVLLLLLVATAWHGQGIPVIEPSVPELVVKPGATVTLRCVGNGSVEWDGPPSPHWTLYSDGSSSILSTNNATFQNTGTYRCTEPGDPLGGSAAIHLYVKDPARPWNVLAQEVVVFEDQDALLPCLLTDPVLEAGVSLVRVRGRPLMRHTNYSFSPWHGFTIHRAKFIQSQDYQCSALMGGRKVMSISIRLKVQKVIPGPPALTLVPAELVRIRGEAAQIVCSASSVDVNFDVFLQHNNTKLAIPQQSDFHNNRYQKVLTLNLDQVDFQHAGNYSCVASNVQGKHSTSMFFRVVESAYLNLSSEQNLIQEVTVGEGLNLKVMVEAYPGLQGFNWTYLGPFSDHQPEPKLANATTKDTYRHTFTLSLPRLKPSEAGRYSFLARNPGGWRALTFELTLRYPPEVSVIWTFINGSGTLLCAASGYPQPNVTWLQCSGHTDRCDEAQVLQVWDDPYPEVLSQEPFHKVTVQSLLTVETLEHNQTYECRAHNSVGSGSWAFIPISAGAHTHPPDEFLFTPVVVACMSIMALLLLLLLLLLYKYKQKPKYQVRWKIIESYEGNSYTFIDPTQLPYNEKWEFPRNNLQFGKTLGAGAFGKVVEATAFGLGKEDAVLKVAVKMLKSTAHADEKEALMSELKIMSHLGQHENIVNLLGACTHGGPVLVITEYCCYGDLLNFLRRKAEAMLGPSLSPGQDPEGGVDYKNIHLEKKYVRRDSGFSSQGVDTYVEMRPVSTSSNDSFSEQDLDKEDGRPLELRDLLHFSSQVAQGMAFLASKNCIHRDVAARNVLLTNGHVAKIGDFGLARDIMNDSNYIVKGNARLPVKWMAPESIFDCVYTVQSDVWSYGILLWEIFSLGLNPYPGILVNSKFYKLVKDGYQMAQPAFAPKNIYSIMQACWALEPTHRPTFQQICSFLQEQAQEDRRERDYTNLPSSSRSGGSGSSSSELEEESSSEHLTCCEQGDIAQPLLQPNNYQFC
Chain of PKN3 (M.tuberculosis) (Q6P5Z2 whole entry, looked up): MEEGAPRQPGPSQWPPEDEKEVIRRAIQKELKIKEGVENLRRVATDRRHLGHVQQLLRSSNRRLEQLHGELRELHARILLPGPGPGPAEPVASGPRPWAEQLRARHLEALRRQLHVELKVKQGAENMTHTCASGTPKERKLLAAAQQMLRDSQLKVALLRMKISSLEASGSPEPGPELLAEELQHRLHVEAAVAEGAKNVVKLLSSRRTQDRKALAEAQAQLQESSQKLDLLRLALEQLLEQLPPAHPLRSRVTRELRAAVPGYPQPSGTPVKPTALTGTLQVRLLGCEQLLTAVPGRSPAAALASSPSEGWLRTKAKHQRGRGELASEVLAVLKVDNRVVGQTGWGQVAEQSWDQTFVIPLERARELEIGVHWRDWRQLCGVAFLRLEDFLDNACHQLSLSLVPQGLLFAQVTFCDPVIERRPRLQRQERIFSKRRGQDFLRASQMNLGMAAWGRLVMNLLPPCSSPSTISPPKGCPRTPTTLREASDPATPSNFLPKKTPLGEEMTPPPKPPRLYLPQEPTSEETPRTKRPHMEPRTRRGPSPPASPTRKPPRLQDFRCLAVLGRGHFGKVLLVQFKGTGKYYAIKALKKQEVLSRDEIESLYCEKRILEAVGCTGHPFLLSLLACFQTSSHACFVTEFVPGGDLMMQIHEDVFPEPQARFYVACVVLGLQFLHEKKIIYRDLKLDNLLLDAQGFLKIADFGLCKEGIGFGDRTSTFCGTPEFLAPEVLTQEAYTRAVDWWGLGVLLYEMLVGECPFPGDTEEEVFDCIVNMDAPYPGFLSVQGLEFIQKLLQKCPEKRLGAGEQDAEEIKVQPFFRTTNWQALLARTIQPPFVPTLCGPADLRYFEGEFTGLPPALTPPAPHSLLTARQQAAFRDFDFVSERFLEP
Chain of PIP4K2C (human) (Q8TBX8 whole entry, looked up): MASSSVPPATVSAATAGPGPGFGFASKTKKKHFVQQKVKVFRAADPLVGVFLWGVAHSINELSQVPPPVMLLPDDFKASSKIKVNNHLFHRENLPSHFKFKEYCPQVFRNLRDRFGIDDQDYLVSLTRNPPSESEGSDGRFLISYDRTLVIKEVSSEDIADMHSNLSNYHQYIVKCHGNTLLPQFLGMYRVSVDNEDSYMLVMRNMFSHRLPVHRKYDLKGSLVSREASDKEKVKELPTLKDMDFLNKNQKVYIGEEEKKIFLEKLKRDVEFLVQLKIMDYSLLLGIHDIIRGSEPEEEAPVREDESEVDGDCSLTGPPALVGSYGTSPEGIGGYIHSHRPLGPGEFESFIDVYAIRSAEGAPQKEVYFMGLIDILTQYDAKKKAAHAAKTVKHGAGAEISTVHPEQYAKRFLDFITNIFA
Chain of RIPK1 (human) (Q13546 whole entry, looked up): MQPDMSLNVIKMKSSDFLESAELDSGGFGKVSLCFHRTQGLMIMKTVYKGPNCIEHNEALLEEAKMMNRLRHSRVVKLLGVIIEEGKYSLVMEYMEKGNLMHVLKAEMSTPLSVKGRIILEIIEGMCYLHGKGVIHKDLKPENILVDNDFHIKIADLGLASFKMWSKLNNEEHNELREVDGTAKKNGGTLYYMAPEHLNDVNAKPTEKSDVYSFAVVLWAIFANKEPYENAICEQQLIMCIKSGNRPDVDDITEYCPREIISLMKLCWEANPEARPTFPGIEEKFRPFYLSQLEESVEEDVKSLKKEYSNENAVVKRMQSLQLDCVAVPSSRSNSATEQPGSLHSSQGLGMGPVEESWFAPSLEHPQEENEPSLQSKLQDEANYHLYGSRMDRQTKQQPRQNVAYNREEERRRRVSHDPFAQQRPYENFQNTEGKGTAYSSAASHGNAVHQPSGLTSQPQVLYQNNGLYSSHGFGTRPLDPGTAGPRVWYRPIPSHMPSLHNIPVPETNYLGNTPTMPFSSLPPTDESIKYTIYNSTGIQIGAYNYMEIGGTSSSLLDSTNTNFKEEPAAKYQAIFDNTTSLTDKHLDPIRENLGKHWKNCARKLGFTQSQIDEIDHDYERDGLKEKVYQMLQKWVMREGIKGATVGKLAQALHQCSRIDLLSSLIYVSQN
Chain of AKT1 (human) (P31749 whole entry, looked up): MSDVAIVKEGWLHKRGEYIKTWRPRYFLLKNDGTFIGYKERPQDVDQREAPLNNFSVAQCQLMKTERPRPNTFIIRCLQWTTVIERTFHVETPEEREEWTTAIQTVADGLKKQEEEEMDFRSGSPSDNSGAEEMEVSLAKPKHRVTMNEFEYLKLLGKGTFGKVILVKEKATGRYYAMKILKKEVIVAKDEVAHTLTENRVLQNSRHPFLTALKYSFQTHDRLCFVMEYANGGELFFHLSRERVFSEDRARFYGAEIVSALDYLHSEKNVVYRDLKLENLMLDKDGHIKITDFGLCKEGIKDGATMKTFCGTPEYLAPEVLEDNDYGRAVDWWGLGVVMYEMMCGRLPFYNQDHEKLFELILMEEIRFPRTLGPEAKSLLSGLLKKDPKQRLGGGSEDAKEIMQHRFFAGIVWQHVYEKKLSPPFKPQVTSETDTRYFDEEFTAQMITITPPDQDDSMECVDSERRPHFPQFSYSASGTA

| SMILES | kinase still bound, per cent of control (RPS6KA2 KD2 (human)) | kinase still bound, per cent of control (PIP4K2C (human)) | kinase still bound, per cent of control (RIOK1 (human)) | kinase still bound, per cent of control (RIPK4 (human)) | kinase still bound, per cent of control (CDKL5 (human)) | kinase still bound, per cent of control (PRKG2 (human)) | kinase still bound, per cent of control (MATK (human)) | kinase still bound, per cent of control (NEK7 (human)) | kinase still bound, per cent of control (AKT1 (human)) | kinase still bound, per cent of control (MARK1 (human)) | kinase still bound, per cent of control (MAP3K10 (human)) | kinase still bound, per cent of control (MAPK10 (human)) | kinase still bound, per cent of control (MAPKAPK2 (human)) | kinase still bound, per cent of control (FLT3 (human)) | kinase still bound, per cent of control (PTK6 (human)) | kinase still bound, per cent of control (FGFR2 (human)) | kinase still bound, per cent of control (DAPK3 (human)) | kinase still bound, per cent of control (PKN3 (M.tuberculosis)) | kinase still bound, per cent of control (STK32C (human)) | kinase still bound, per cent of control (NEK1 (human)) | further results |
| --- | --- | --- | --- | --- | --- | --- | --- | --- | --- | --- | --- | --- | --- | --- | --- | --- | --- | --- | --- | --- | --- |
| NC(=O)Nc1cc(-c2cccc(F)c2)sc1C(=O)N[C@@H]1CCCNC1 | 1.9% | 87% | 0.4% | 0% | 100% | 0.5% | 34% | 72% | 3.2% | 2.6% | 1.2% | 63% | 0% | 0% | 1.4% | 11% | 2.9% | 0% | 53% | 24% | kinase still bound, per cent of control [1]: 0%; kinase still bound, per cent of control (GSK3B (human)): 41%; kinase still bound, per cent of control (CSF1R (human)): 0%; kinase still bound, per cent of control (PRKX (human)): 0.7%; kinase still bound, per cent of control (PIK3CB (human)): 68%; kinase still bound, per cent of control (EPHA3 (human)): 0.2%; kinase still bound, per cent of control (MYLK2 (human)): 67%; kinase still bound, per cent of control (STK4 (human)): 0.4%; kinase still bound, per cent of control [2]: 0%; kinase still bound, per cent of control (RPS6KA6 KD1 (human)): 0.3%; kinase still bound, per cent of control (SIK1 (human)): 0.3%; kinase still bound, per cent of control (RIPK1 (human)): 100%; kinase still bound, per cent of control (STK25 (human)): 0%; kinase still bound, per cent of control (CRK2 (P.falciparum)): 100%; kinase still bound, per cent of control (RPS6KA2 KD1 (human)): 5%; kinase still bound, per cent of control [3]: 2.4%; kinase still bound, per cent of control (MELK (human)): 1.4%; kinase still bound, per cent of control (SRPK2 (human)): 4.4%; kinase still bound, per cent of control (GSK3A (human)): 100%; kinase still bound, per cent of control (VRK2 (human)): 92% |
| O=C(Nc1cccc(Nc2ncc(Br)c(NCCc3cnc[nH]3)n2)c1)N1CCCC1 | 4.8% | 2% | 0% | 0.3% | 1.8% | 4.8% | 40% | 0.5% | 100% | 0.45% | 0% | 0.1% | 100% | 0% | 45% | 4.6% | 4% | 6.6% | 100% | 30% | kinase still bound, per cent of control [1]: 0.1%; kinase still bound, per cent of control (GSK3B (human)): 44%; kinase still bound, per cent of control (CSF1R (human)): 1.4%; kinase still bound, per cent of control (PRKX (human)): 0.2%; kinase still bound, per cent of control (PIK3CB (human)): 100%; kinase still bound, per cent of control (EPHA3 (human)): 21%; kinase still bound, per cent of control (MYLK2 (human)): 0.35%; kinase still bound, per cent of control (STK4 (human)): 12%; kinase still bound, per cent of control [2]: 0%; kinase still bound, per cent of control (RPS6KA6 KD1 (human)): 0.6%; kinase still bound, per cent of control (SIK1 (human)): 0.35%; kinase still bound, per cent of control (RIPK1 (human)): 18%; kinase still bound, per cent of control (STK25 (human)): 30%; kinase still bound, per cent of control (CRK2 (P.falciparum)): 100%; kinase still bound, per cent of control (RPS6KA2 KD1 (human)): 7.6%; kinase still bound, per cent of control [3]: 67%; kinase still bound, per cent of control (MELK (human)): 2.2%; kinase still bound, per cent of control (SRPK2 (human)): 5.4%; kinase still bound, per cent of control (GSK3A (human)): 60%; kinase still bound, per cent of control (VRK2 (human)): 12% |
| C[C@@H](Oc1cc(-c2cnn(C3CCNCC3)c2)cnc1N)c1c(Cl)ccc(F)c1Cl | 28% | 100% | 3.4% | 8.2% | 25% | 89% | 64% | 6.7% | 100% | 36% | 79% | 80% | 100% | 7.8% | 56% | 35% | 94% | 30% | 100% | 56% | kinase still bound, per cent of control (GSK3B (human)): 100%; kinase still bound, per cent of control (CSF1R (human)): 0.15%; kinase still bound, per cent of control (PRKX (human)): 94%; kinase still bound, per cent of control (PIK3CB (human)): 99%; kinase still bound, per cent of control (EPHA3 (human)): 11%; kinase still bound, per cent of control (MYLK2 (human)): 73%; kinase still bound, per cent of control (STK4 (human)): 3.9%; kinase still bound, per cent of control [2]: 14%; kinase still bound, per cent of control (RPS6KA6 KD1 (human)): 46%; kinase still bound, per cent of control (SIK1 (human)): 24%; kinase still bound, per cent of control (RIPK1 (human)): 5%; kinase still bound, per cent of control (STK25 (human)): 65%; kinase still bound, per cent of control (CRK2 (P.falciparum)): 95%; kinase still bound, per cent of control (RPS6KA2 KD1 (human)): 34%; kinase still bound, per cent of control (MELK (human)): 47%; kinase still bound, per cent of control (SRPK2 (human)): 46%; kinase still bound, per cent of control (GSK3A (human)): 100%; kinase still bound, per cent of control (VRK2 (human)): 100% |
